Reference: article PMC4648318, “A novel 2,5-diaminopyrimidine-based affinity probe for Bruton’s tyrosine kinase” (Scientific Reports, 2015)
Values joined by “and” are separate entries in the source; they are usually repeats but may differ in a detail not shown here. Equal entries are not always repeated. “Also recorded” adds a separate entry of the source. Structures can show the parent of a compound that is named as a salt.

Legend:
Btk [1] = target: T1, Btk (Homo sapiens, UniProt Q06187); assay: Kinase enzymology assay (HTRF KinEase); assay type: biochemical; set-up: purchased Carna Biosciences; conditions: enzymatic assay; values marked * are a single run of duplicates, all others are means of two individual measurements
Experimental: Kinases were purchased from Carna Biosciences. Kinase enzymology assays were performed according to the protocols specified for the HTRF® KinEase™ assays sold by Cisbio Bioassays.
Target sequence in this assay (Q06187 whole entry): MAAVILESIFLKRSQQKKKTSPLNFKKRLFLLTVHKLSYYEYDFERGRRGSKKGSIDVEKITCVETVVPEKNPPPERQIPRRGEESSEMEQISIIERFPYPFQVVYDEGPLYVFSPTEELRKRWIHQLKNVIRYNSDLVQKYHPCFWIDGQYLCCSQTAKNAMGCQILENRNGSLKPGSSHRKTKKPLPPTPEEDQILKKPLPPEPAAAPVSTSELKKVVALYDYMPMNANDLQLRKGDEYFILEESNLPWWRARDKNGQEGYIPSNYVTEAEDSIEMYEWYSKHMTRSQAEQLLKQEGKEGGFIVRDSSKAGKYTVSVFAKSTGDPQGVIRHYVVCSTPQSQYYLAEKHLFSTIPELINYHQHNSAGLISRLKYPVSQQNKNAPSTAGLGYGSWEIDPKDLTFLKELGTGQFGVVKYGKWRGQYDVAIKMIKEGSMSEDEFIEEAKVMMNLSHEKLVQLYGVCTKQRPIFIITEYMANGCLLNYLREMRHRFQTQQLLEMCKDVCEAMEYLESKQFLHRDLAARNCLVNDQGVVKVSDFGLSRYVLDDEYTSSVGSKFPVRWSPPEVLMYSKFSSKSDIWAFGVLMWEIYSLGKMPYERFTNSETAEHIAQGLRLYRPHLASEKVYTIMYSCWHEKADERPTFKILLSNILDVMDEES

Btk [2] = target: T1, Btk; assay: Kinetic study of Btk inhibitors (kinact/Ki, HTRF KinEase); assay type: biochemical; set-up: purchased Carna Biosciences; conditions: 0.5 nM Btk, room temperature, preincubation 0-20 min
Experimental: The kinase assays were performed at room temperature. The compounds with serial dilution in DMSO were added into reaction buffer with 0.5 nM Btk, incubating with different periods of time (0 min, 4 min, 8 min, 12 min, 16 min, and 20 min). Enzyme reaction was started by adding ATP and substrate to the reaction mixture. The enzyme activity was measured with HTRF® KinEase™ assays. The data analysis was guided by the book, Enzyme Kinetics by Hans Bisswanger[16].
Target sequence in this assay (Q06187 whole entry): as above

Jurkat cells = assay: Cellular labeling by probe 14 in Jurkat cells (T-cell line that does not express Btk); assay type: cell-based; conditions: T-cell line without Btk (Supplementary Figure S1)
Experimental: (§1) Supplementary figure S1: competition experiment in OCI-Ly7 cells (a) and Jurkat cells (b). 1.5×10^6 cells were pre-incubated with compounds for 1h at 1μM before labeling with probe 14 for 2h at 0.5μM. Then, lysed, quantified and analyzed by SDS/PAGE and fluorescent gel scanning (fluorescence, CY2).

Btk [3] = target: T1, Btk; assay: Recombinant protein labeling assay; assay type: binding; conditions: recombinant Btk (0.5 μg)
Excerpt: […] The gel was then blotted, and the total Btk levels were detected by standard […]. The concentration course labeling procedure was similar to that for the time course labeling.
Target sequence in this assay (Q06187 whole entry, species assumed): as the sequence (Q06187 whole entry) above

Btk [4] = target: T1, Btk; assay: Cellular labeling of Btk by probe 14 in OCI-Ly7 cells; assay type: cell-based
Experimental: Labeling of Btk by probe 14. A total of 1.5 × 10^6 cells were treated with probe 14 at 1 μM for different lengths of times (5 min, 10 min, 20 min, 30 min, 1 h, 2 h, 3 h, or 4 h), washed, lysed in cell lysis buffer (Beyotime) containing 1 mM PMSF and 10 mM NaF (Invitrogen), and centrifuged. The sample protein concentrations were quantified using a NanoDrop 2000 spectrophotometer, and the samples were adjusted to the same concentration then analyzed by SDS/PAGE and fluorescent gel scanning (fluorescence, CY2). The gel was then blotted, and the total Btk levels were detected by a standard Western blot. The concentration course labeling procedure was similar to that for the time course labeling.
Target sequence in this assay (Q06187 whole entry): as above

Btk [5] = target: T1, Btk; assay: Competition assay: blocking of probe 14 labeling of Btk in cells; assay type: cell-based; conditions: inhibitor 1 μM for 1 hour, then 0.5 μM probe 14 for 2 hours, OCI-Ly7 cells
Experimental: as §1, with “Competition assay. LY7 cells were preincubated with the compounds (1 μM) for 1 h before labeling with probe 14 under the proper time and concentration conditions. Then, the cells were lysed and analyzed as described above. Supplementary” for “Supplementary”
Target sequence in this assay (Q06187 whole entry): as above

Compound	IC50 (Btk [1])	also measured
C=CC(=O)N[C@@H](Cc1cnc[nH]1)C(=O)Nc1cccc(Nc2ncc(NC(=O)c3cc(NC(=O)c4cccc(C(F)(F)F)c4)ccc3C)cn2)c1 [Compound 12]	64.2 ± 4.95 nM	
C=CC(=O)N[C@@H](Cc1ccccc1)C(=O)Nc1cccc(Nc2ncc(NC(=O)c3cc(NC(=O)c4cccc(C(F)(F)F)c4)ccc3C)cn2)c1 [Compound 7]	> 100 nM and 140 nM	
C=CC(=O)N[C@@H](CC(C)C)C(=O)Nc1cccc(Nc2ncc(NC(=O)c3cc(NC(=O)c4cccc(C(F)(F)F)c4)ccc3C)cn2)c1 [Compound 6, (S)-N-(2-((3-(2-acrylamido-4-methylpentanamido)phenyl)amino)pyrimidin-5-yl)-2-methyl-5-(3-(trifluoromethyl)benzamido)benzamide]	> 100 nM and 114 nM	
C=CC(=O)NCC(=O)Nc1cccc(Nc2ncc(Nc3cc(NC(=O)c4cccc(C(F)(F)F)c4)ccc3C)cn2)c1 [Compound 1]	16.7 nM	
C#CCCC(=O)NCCCC[C@H](NC(=O)C=C)C(=O)Nc1cccc(Nc2ncc(NC(=O)c3cc(NC(=O)c4cccc(C(F)(F)F)c4)ccc3C)cn2)c1 [Compound 13]	38 nM and 37.5 nM	kinact/KI (Btk [2]): 75000 ± 8e+08 M⁻¹ s⁻¹
C=CC(=O)N[C@@H](CCCCN)C(=O)Nc1cccc(Nc2ncc(NC(=O)c3cc(NC(=O)c4cccc(C(F)(F)F)c4)ccc3C)cn2)c1 [Compound 11, Trifluoroacetate of (S)-N-(2-((3-(2-acrylamido-6-aminohexanamido)phenyl)amino)pyramidin-5-yl)-2-methyl-5-(3-(trifluoromethyl)benzamido)benzamide]	63 nM and 62.8 nM	kinact/KI (Btk [2]): 135000 ± 4e+08 M⁻¹ s⁻¹
C=CC(=O)N[C@@H](CCCCNC(=O)CCC1=[N+]2C(=Cc3c(C)cc(C)n3[B-]2(F)F)C=C1)C(=O)Nc1cccc(Nc2ncc(NC(=O)c3cc(NC(=O)c4cccc(C(F)(F)F)c4)ccc3C)cn2)c1 [Compound 14, (S)-3-(3-((5-acrylamido-6-((3-((5-(2-methyl-5-(3-(trifluoromethyl)benzamido)benzamido)pyrimidin-2-yl)amino)phenyl)amino)-6-oxohexyl)amino)-3-oxopropyl)-5,5-difluoro-7,9-dimethyl-5H-dipyrrolo[1,2-c:2',1'-f][1,3,2]diazaborinin-4-ium-5-uide]		Labeling in Jurkat cells (Jurkat cells): no significant labeling; Incubation time at which fluorescent signals reached a maximum (Btk [3]): 2 h; Saturation rate of labeling compared with PCI-33380 (Btk [4]; OCI-Ly7 cells (Supplementary Figure S2)): slower saturation rate; Probe concentration at which Btk band intensity reached saturation (Btk [4]; OCI-Ly7 cells, concentration course): 0.5 µM; Incubation time sufficient for labeling (Btk [4]; OCI-Ly7 cells, time course): 2 h
C=CC(=O)Nc1cccc(Nc2ncc(NC(=O)c3cc(NC(=O)c4cccc(C(F)(F)F)c4)ccc3C)cn2)c1 [Compound 2]		Blocking of the labeling of Btk by probe 14 (Btk [5]): effectively blocked; also recorded: completely competed off
C=CC(=O)N[C@@H](C)C(=O)Nc1cccc(Nc2ncc(NC(=O)c3cc(NC(=O)c4cccc(C(F)(F)F)c4)ccc3C)cn2)c1 [Compound 5]	44 ± 8.13 nM	
C=CC(=O)N[C@@H](CO)C(=O)Nc1cccc(Nc2ncc(NC(=O)c3cc(NC(=O)c4cccc(C(F)(F)F)c4)ccc3C)cn2)c1 [Compound 8]	27.4 ± 2.6 nM	
C=CC(=O)N[C@@H](CCC(=O)O)C(=O)Nc1cccc(Nc2ncc(NC(=O)c3cc(NC(=O)c4cccc(C(F)(F)F)c4)ccc3C)cn2)c1 [Compound 10]	15 to 20 nM and 14.7 nM	
C=CC(=O)N1CCC[C@H]1C(=O)Nc1cccc(Nc2ncc(NC(=O)c3cc(NC(=O)c4cccc(C(F)(F)F)c4)ccc3C)cn2)c1 [Compound 4]	52.9 ± 0.95 nM	
C=CC(=O)NCCC(=O)Nc1cccc(Nc2ncc(NC(=O)c3cc(NC(=O)c4cccc(C(F)(F)F)c4)ccc3C)cn2)c1 [Compound 3]	26.7 ± 5.74 nM	
C=CC(=O)N[C@@H](CC(N)=O)C(=O)Nc1cccc(Nc2ncc(NC(=O)c3cc(NC(=O)c4cccc(C(F)(F)F)c4)ccc3C)cn2)c1 [Compound 9]	15 to 20 nM and 19.8 nM	
